From US20260053861A1, “CELL COMPOSITIONS AND METHODS OF USING THE SAME” (THE REGENTS OF THE UNIVERSITY OF CALIFORNIA, priority 2022, published 2026)
Structures can show the parent of a compound that is named as a salt. Where two headings read alike, the source gives them in different places.

System: hPSC-SCs
[1] = HTS viability of hPSC-SCs in the presence of 30 mM glucose, Prestwick library, Table S4

Row | Compound | z.score.t [1] | z.score.t
1 | C[C@@H]1NCCc2cc(O)c(O)cc21 [Salsolinol hydrobromide] | 0.4048 | –
2 | O=C(O)[C@]1(O)C[C@@H](O)[C@@H](O)[C@H](O)C1 [Quinic acid] | 0.5268 | –
3 | CO[C@H]1/C=C/O[C@@]2(C)Oc3c(C)c(O)c4c(c3C2=O)C2=NC3(CCN(CC(C)C)CC3)NC2=C(NC(=O)/C(C)=C\C=C\[C@H](C)[C@H](O)[C@@H](C)[C@@H](O)[C@@H](C)[C@H](OC(C)=O)[C@@H]1C)C4=O [Rifabutin] | −0.1474 | –
4 | CC(=O)Oc1ccc(C(c2ccc(OC(C)=O)cc2)c2ccccn2)cc1 [Bisacodyl] | 0.4849 | –
5 | NC(=O)CN1CCCC1=O [Piracetam] | 1.595 | –
6 | Nc1ccc(S(=O)(=O)Nc2ncccn2)cc1 [Sulfadiazine] | 0.5856 | –
7 | c1ccc(C2CN3CCSC3=N2)cc1 (stereo not drawn) [Tetramisole hydrochloride] | −0.3319 | –
8 | C(#CCN1CCCC1)CN1CCCC1.Cl.Cl [Tremorine dihydrochloride] | – | −0.4139
9 | COC1=C[C@@H]2C3=C([C@@H]2C1=O)[C@@H](NC(C)=O)CCc1cc(OC)c(OC)c(OC)c13 [Lumicolchicine gamma] | – | 1.528
10 | C[C@H]1[C@H](NC(=O)/C(=N\OC(C)(C)C(=O)O)c2csc(N)n2)C(=O)N1S(=O)(=O)O [Aztreonam] | 1.36 | –
11 | CC(=O)c1ccc2c(c1)N(CCCN1CCC(CCO)CC1)c1ccccc1S2 [Piperacetazine] | −1.148 | –
12 | O=C(O)CCc1nc(-c2ccccc2)c(-c2ccccc2)o1 [Oxaprozin] | 0.0827 | –
13 | CN1[C@@H]2CC[C@H]1C[C@@H](OC(=O)[C@H](CO)c1ccccc1)C2 [Hyoscyamine (L)] | – | −0.528
14 | CCCN(CCC)C(=O)C(CCC(=O)O)NC(=O)c1ccccc1 (stereo not drawn) [Proglumide] | −0.8991 | –
15 | Thioproperazine dimesylate | −1.223 | –
16 | CN(C)CCC(c1ccccc1)c1ccccn1 (stereo not drawn) [Pheniramine maleate] | −0.09426 | –
17 | CC(C(=O)O)c1ccc(-c2ccccc2)c(F)c1 (stereo not drawn) [Flurbiprofen] | 1.824 | –
18 | CNC(=O)Oc1ccc2c(c1)[C@]1(C)CCN(C)[C@@H]1N2C.CNC(=O)Oc1ccc2c(c1)[C@]1(C)CCN(C)[C@@H]1N2C.O=S(=O)(O)O [Eserine sulfate, physostigmine sulfate] | – | −0.3526
19 | CCn1cc(C(=O)O)c(=O)c2cnc(N3CCNCC3)nc21 [Pipemidic acid] | 0.4318 | –
20 | CCC(=O)O[C@]1(C(=O)CCl)[C@@H](C)C[C@H]2[C@@H]3CCC4=CC(=O)C=C[C@]4(C)[C@@]3(F)[C@@H](O)C[C@@]21C [Clobetasol propionate] | 1.323 | –
21 | COc1ccc2c3c([nH]c2c1)C(C)=NCC3.Cl.O.O [Harmaline hydrochloride dihydrate] | – | 1.306
22 | NC(=O)c1cc[n+](CC2=C(C(=O)O)N3C(=O)[C@@H](NC(=O)[C@@H](c4ccccc4)S(=O)(=O)[O-])[C@H]3SC2)cc1 [Cefsulodin sodium salt] | −0.03362 | –
23 | c1ccc([C@H]2CN3CCSC3=N2)cc1 [Levamisole hydrochloride] | 0.4064 | –
24 | O=S(=O)(O)c1cc(O)ccc1O [Ethamsylate] | −0.4549 | –
25 | CC(N/C(=N\C#N)Nc1ccncc1)C(C)(C)C (stereo not drawn) [Pinacidil] | −0.03449 | –
26 | CCN1C[C@]2(COC)[C@H](O)C[C@H](OC)[C@@]34[C@@H]5C[C@@]6(O)[C@H](OC(=O)c7ccccc7)[C@@H]5[C@@](OC(C)=O)([C@@H]([C@H](OC)[C@H]23)[C@@H]14)[C@@H](O)[C@@H]6OC [Aconitine] | – | −0.2486
27 | Cc1cc(C(C)(C)CC(C)(C)C)ccc1OCCOCC[N+](C)(C)Cc1ccccc1.[Cl-] [Methyl benzethonium chloride] | – | −1.169

Row | Compound | z.score.t [1] | z.score.t
28 | Cl.Cl.c1ccc2c3c([nH]c2c1)C1C2CCC(C4CCCNC42)N1CC3 (stereo not drawn) [Nitrarine dihydrochloride] | – | 0.3022
29 | CC(N)C(O)c1ccccc1 (stereo not drawn) [Phenylpropanolamine hydrochloride] | – | −0.8304
30 | CC(C(=O)O)c1ccc(C(=O)c2ccccc2)s1 (stereo not drawn) [Tiaprofenic acid] | 0.04918 | –
31 | COc1cc(C(=O)OCCCN2CCCN(CCCOC(=O)c3cc(OC)c(OC)c(OC)c3)CC2)cc(OC)c1OC [Dilazep dihydrochloride] | −1.444 | –
32 | O=C(O)c1cccnc1 [Niacin] | 0.4105 | –
33 | O=C(O)c1cccnc1Nc1cccc(C(F)(F)F)c1 [Niflumic acid] | 0.5856 | –
34 | C[C@H]1C(=O)O[C@@H]2CCN3CC=C(COC(=O)[C@](C)(O)[C@]1(C)O)[C@H]23 [Monocrotaline] | – | 0.5046
35 | CC1=NS(=O)(=O)c2cc(Cl)ccc2N1 [Diazoxide] | 0.4626 | –
36 | CC[C@H](C)C(=O)O[C@H]1C[C@@H](C)C=C2C=C[C@H](C)[C@H](CC[C@@H]3C[C@@H](O)CC(=O)O3)[C@H]21 [Lovastatin] | −0.865 | –
37 | COc1cc(C)nc(-n2nc(C)cc2OC)n1 [Epirizole] | 1.191 | –
38 | CN(C)CCCN1c2ccccc2Sc2ccccc21 [Promazine hydrochloride] | −1.845 | –
39 | C[N+]1(C)C[C@H](O)C[C@H]1C(=O)[O-] [Betonicine] | 1.194 | –
40 | CCCOc1ccccc1-c1nc2nn[nH]c2c(=O)[nH]1 [Zaprinast] | −0.4341 | –
41 | Nc1ccc(S(=O)(=O)Nc2ccccn2)cc1 [Sulfapyridine] | 1.853 | –
42 | O=C(O)Cc1cc(I)c(Oc2ccc(O)c(I)c2)c(I)c1 | 0.4486 | –
43 | C[C@@H](O)[C@H]1C(=O)N2C(C(=O)O)=C(SCCN=CN)C[C@H]12 [Imipenem] | 0.767 | –
44 | C[C@@H]1[C@H](O)[C@@H](C)/C=C/C=C/CC/C=C/C=C/C=C/C=C/C(O[C@H]2O[C@H](C)[C@@H](O)[C@H](N)[C@@H]2O)CC2O[C@](O)(CC(O)C(O)CCC(O)CC(O)CC(O)CC(=O)O[C@H]1C)CC(O)C2C(=O)O (stereo partly drawn) [Nystatine] | – | 1.992
45 | CN(C)CCOC(C)(c1ccccc1)c1ccccn1 (stereo not drawn) [Doxylamine succinate] | −0.1538 | –
46 | C[C@]12C=CC(=O)C=C1CC[C@@H]1[C@@H]2[C@@H](O)C[C@@]2(C)[C@H]1CC[C@]2(O)C(=O)CO [Prednisolone] | 1.287 | –
47 | C[C@H](CS)C(=O)N1CCC[C@H]1C(=O)O [Captopril] | 2.207 | –
48 | CCOC(=O)NNc1nncc2ccccc12 [Todralazine hydrochloride] | −0.4444 | –
49 | CC[C@@H](C)C(=O)O[C@H]1[C@H](O)[C@H]2[C@@H](CN3C[C@@H](C)CC[C@H]3[C@@]2(C)O)[C@@H]2C[C@]34O[C@]5(O)[C@@H](OC(=O)[C@@](C)(O)CC)CC[C@@]3(C)[C@@H]5[C@@H](OC(C)=O)[C@@H](OC(C)=O)[C@H]4[C@@]21O [Protoveratrine A] | – | −0.3319
50 | COc1ccc(CN(CCN(C)C)c2ccccn2)cc1 [Pyrilamine maleate] | 0.07016 | –
51 | CC(C)N(CCC(C(N)=O)(c1ccccc1)c1ccccn1)C(C)C (stereo not drawn) [Disopyramide] | 0.4205 | –
52 | C=C1CC[C@H](O)C/C1=C/C=C1\CCC[C@]2(C)[C@@H]([C@H](C)/C=C/[C@H](C)C(C)C)CC[C@@H]12 [Calciferol] | 0.4451 | –
53 | Oc1ccc(C=Cc2cc(O)cc(O)c2)cc1 [Resveratrol] | 0.9702 | –
54 | N#Cc1ccc(C(c2ccc(C#N)cc2)n2cncn2)cc1 [Letrozole] | −0.4953 | –
